Non-standard residues stand in square brackets, D forms with d. Residues, ends and D or L forms follow the SMILES beside them. *: point of attachment. Octanoyl = CCCCCCCC(=O)*; X1 = CC(C)C[C@@H](CN)N*; Dap = NC[C@H](N)C(=O)O
How the values were obtained:
[1] = In vivo inhibition of GOAT in C57BL/6 mouse assessed as reduction in ratio of AG to total-ghrelin at 18 mg/kg, po BID administered via gavage for 3 days by ELISA relative to control; assay type: functional; conditions: C57BL/6, po, 72 h, time 3 day
[2] = biological target: T1, Membrane-bound ghrelin O-acyltransferase MBOAT4 (Homo sapiens, UniProt Q96T53); assay: Inhibition of human His-tagged GOAT expressed in baculovirus infected Sf9 cell membrane using desacyl-ghrelin-biotin and octanoyl-CoA as substrate incubated for 1 hr by ELISA; assay type: cell membranes
T1 sequence (Q96T53 whole entry): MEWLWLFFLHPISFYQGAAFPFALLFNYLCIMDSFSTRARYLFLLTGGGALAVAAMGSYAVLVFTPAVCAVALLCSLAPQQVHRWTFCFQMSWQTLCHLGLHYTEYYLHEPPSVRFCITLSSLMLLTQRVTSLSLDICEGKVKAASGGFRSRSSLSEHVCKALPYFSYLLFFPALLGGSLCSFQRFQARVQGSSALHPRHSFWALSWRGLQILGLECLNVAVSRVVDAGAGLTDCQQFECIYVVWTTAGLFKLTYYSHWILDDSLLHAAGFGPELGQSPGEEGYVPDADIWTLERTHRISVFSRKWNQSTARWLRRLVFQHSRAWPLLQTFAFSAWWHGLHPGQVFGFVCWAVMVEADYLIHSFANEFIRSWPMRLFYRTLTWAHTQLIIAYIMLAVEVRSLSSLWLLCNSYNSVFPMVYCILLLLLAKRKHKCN

[3] = biological target: T2, Membrane-bound ghrelin O-acyltransferase MBOAT4 (Mus musculus, UniProt P0C7A3); assay: Inhibition of N-terminal His10-tagged mouse GOAT expressed in baculovirus infected sf9 insect cell membrane using proghrelin-His8 and [3H]octanoyl CoA as substrate by scintillation counting method; assay type: cell membranes
T2 sequence (P0C7A3 whole entry): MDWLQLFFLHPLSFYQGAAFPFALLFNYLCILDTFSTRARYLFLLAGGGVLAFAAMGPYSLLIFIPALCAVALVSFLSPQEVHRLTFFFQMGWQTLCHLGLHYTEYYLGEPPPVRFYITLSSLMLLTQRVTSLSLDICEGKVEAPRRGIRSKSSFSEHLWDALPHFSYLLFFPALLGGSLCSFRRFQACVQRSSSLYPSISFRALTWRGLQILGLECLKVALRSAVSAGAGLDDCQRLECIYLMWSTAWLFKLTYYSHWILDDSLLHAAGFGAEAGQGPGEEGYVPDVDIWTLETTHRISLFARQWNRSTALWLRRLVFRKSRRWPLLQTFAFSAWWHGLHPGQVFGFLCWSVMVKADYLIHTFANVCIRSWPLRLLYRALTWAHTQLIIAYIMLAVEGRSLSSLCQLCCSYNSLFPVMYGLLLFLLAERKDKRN

[4] = In vivo inhibition of GOAT in C57BL/6 mouse assessed as reduction in ratio of AG to total-ghrelin at 10 mg/kg, po BID administered via gavage for 3 days by ELISA relative to control; assay type: functional; conditions: C57BL/6, po, 72 h, time 3 day
[5] = In vivo inhibition of GOAT in C57BL/6 mouse assessed as reduction in ratio of AG to total-ghrelin at 0.3 mg/kg, po BID administered via gavage for 3 days by ELISA relative to control; assay type: functional; conditions: C57BL/6, po, 72 h, time 3 day
[6] = In vivo inhibition of GOAT in C57BL/6 mouse assessed as increase in unacylated-ghrelin level at 3 mg/kg, po BID administered via gavage for 3 days by ELISA relative to control; assay type: functional; conditions: time 3 day
[7] = In vivo inhibition of GOAT in C57BL/6 mouse assessed as increase in unacylated-ghrelin level at 0.3 mg/kg, po BID administered via gavage for 3 days by ELISA relative to control; assay type: functional; conditions: time 3 day
[8] = In vivo inhibition of GOAT in C57BL/6 mouse assessed as reduction in ratio of AG to total-ghrelin at 3 mg/kg, po BID administered via gavage for 3 days by ELISA relative to control; assay type: functional; conditions: C57BL/6, po, 72 h, time 3 day
[9] = In vivo inhibition of GOAT in C57BL/6 mouse assessed as increase in unacylated-ghrelin level at 10 mg/kg, po BID administered via gavage for 3 days by ELISA relative to control; assay type: functional; conditions: time 3 day
[10] = In vivo inhibition of GOAT in C57BL/6 mouse assessed as reduction in ratio of AG to total-ghrelin at 1 mg/kg, po BID administered via gavage for 3 days by ELISA relative to control; assay type: functional; conditions: C57BL/6, po, 72 h, time 3 day
[11] = In vivo inhibition of GOAT in C57BL/6 mouse assessed as decrease in plasma acylated ghrelin level at 10 mg/kg, po BID administered via gavage for 3 days by ELISA relative to control; assay type: functional; conditions: C57BL/6, po, 72 h, time 3 day
[12] = In vivo inhibition of GOAT in C57BL/6 mouse assessed as decrease in plasma acylated ghrelin level at 3 mg/kg, po BID administered via gavage for 3 days by ELISA relative to control; assay type: functional; conditions: C57BL/6, po, 72 h, time 3 day
[13] = In vivo inhibition of GOAT in C57BL/6 mouse assessed as decrease in plasma acylated ghrelin level at 1 mg/kg, po BID administered via gavage for 3 days by ELISA relative to control; assay type: functional; conditions: C57BL/6, po, 72 h, time 3 day
[14] = In vivo inhibition of GOAT in C57BL/6 mouse assessed as decrease in plasma acylated ghrelin level at 0.3 mg/kg, po BID administered via gavage for 3 days by ELISA relative to control; assay type: functional; conditions: C57BL/6, po, 72 h, time 3 day
[15] = In vivo inhibition of GOAT in C57BL/6 mouse assessed as increase in unacylated-ghrelin level at 1 mg/kg, po BID administered via gavage for 3 days by ELISA relative to control; assay type: functional; conditions: time 3 day
[16] = biological target: T2, Membrane-bound ghrelin O-acyltransferase MBOAT4; assay: Antagonist activity at mouse GOAT expressed in baculovirus infected sf9 insect cell membrane using ghrelin(1 to 5) pentapeptide as substrate preincubated for 5 mins followed by Palmitoyl-CoA and n-octynoyl-CoA addition and measured after 5 mins by amplex red/H2O2 reagent-based fluorescence method; assay type: cell membranes
[17] = In vivo inhibition of GOAT in C57BL/6 mouse assessed as reduction in ratio of AG to total-ghrelin at 0.1 mg/kg, po BID administered via gavage for 3 days by ELISA relative to control; assay type: functional; conditions: C57BL/6, po, 72 h, time 3 day
[18] = In vivo inhibition of GOAT in cynomolgus monkey assessed as reduction in plasma acyl ghrelin AUC (0 to 24 hrs) at 10 mg/kg, po administered as single dose measured after 15 mins to 24 hrs relative to control; assay type: functional; conditions: Macaca fascicularis, 0.25 h
[19] = biological target: T1, Membrane-bound ghrelin O-acyltransferase MBOAT4; assay: Inhibition of human His-tagged GOAT expressed in baculovirus infected Sf9 cell membrane using biotinylated ghrelin peptide/octanoyl-CoA/palmitoyl CoA as substrate incubated for 80 mins by TR-FRET assay; assay type: cell membranes
[20] = In vivo inhibition of GOAT in mouse model of HFHC-diet induced obesity assessed as reduction in acyl ghrelin level at 10 mg/kg, po administered once daily for 7 days relative to control; assay type: functional; conditions: 168 h, time 7 day
[21] = biological target: T1, Membrane-bound ghrelin O-acyltransferase MBOAT4; assay: Inhibition of human GOAT expressed in baculovirus infected sf9 insect cell membrane using GSSFLC-acrylodan and octanoyl-CoA as substrate preincubated for 30 mins followed by substrate addition and measured after 3 hrs by HPLC analysis; assay type: cell membranes
[22] = biological target: T2, Membrane-bound ghrelin O-acyltransferase MBOAT4; assay: Inhibition of mouse GOAT expressed in baculovirus infected sf9 insect cell microsomes using biotinylated des-acyl ghrelin and octanoyl-CoA -CoA as substrate incubated for 15 mins by HTRF assay; set-up: species or system Microsome
[23] = biological target: T1, Membrane-bound ghrelin O-acyltransferase MBOAT4; assay: Inhibition of human GOAT expressed in baculovirus infected sf9 insect cell microsomes using biotinylated des-acyl ghrelin and octanoyl-CoA as substrate incubated for 15 mins by HTRF assay; set-up: species or system Microsome
[24] = biological target: Growth hormone secretagogue receptor type 1 (Homo sapiens, UniProt Q92847); assay: Inhibition of GHSR-1A (unknown origin)
[25] = biological target: T1, Membrane-bound ghrelin O-acyltransferase MBOAT4; assay: Inhibition of GOAT (unknown origin)

Sequence of Growth hormone secretagogue receptor type 1 (Q92847 whole entry): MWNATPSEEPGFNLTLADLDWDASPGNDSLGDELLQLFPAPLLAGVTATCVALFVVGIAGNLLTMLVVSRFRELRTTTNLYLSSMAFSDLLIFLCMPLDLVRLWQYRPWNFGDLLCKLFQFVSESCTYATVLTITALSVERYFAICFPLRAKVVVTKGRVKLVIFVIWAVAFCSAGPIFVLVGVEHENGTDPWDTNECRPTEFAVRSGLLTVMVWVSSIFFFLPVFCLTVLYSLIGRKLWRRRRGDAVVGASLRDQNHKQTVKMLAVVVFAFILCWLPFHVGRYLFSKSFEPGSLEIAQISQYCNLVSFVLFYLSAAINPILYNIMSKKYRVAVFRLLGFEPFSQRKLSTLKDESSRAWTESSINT

C[C@H](NC(=O)c1ccn(C)n1)C(=O)N1CCC(CCc2c(N)nc(N)nc2Cl)CC1
inhibition in vivo at 18 mg/kg [1]: 86% | IC50 [2]: 0.0689 µM

CCCC[C@H]1C[C@H](C(=O)NC[C@H]2CCCN2C(=O)[C@@H](NC(=S)CNC)C(C)(C)C)C1
IC50 [3]: 0.03 µM

C[C@H](NC(=O)C1CC1)C(=O)N1CCC(CCc2c(N)nc(N)nc2Cl)CC1
inhibition in vivo at 10 mg/kg [4]: 77% | inhibition in vivo at 0.3 mg/kg [5]: 39% | fold change (FC) [6]: 2.53 | fold change (FC) [7]: 2.24 | inhibition in vivo at 3 mg/kg [8]: 71% | fold change (FC) [9]: 2.9 | inhibition in vivo at 1 mg/kg [10]: 54% | IC50 [2]: 0.192 µM | inhibition in vivo at 10 mg/kg [11]: 48% | inhibition in vivo at 3 mg/kg [12]: 45% | inhibition in vivo at 1 mg/kg [13]: 5% | inhibition in vivo at 0.3 mg/kg [14]: -1% | fold change (FC) [15]: 2.82

CCCCCCCC(=O)OC[C@H](OC(=O)[C@H](CO)NC(=O)CN)C(=O)N[C@@H](Cc1ccccc1)C(=O)N[C@@H](CC(C)C)C(=O)N[C@@H](CO)C(=O)N1CCC[C@H]1C(=O)N[C@@H](CCC(=O)O)C(=O)N[C@@H](Cc1cnc[nH]1)C(=O)N[C@@H](CCC(N)=O)C(=O)N[C@@H](CCCCN)C(=O)N[C@@H](C)C(=O)N[C@@H](CCC(N)=O)C(=O)N[C@@H](CCC(N)=O)C(=O)N[C@@H](CCCNC(=N)N)C(=O)N[C@@H](CCCCN)C(=O)N[C@@H](CCC(=O)O)C(=O)N[C@@H](CO)C(=O)N[C@@H](CCCCN)C(=O)N[C@@H](CCCCN)C(=O)N1CCC[C@H]1C(=O)N1CCC[C@H]1C(=O)N[C@@H](C)C(=O)N[C@@H](CCCCN)C(=O)N[C@@H](CC(C)C)C(=O)N[C@@H](CCC(N)=O)C(=O)N1CCC[C@H]1C(=O)N[C@@H](CCCNC(=N)N)C(=O)O
IC50 [3]: 7 µM

CCCCCCN(C(C)=O)C(CNCc1ccccc1)c1ccc2cc(O)ccc2c1 (centres undefined)
IC50 [16]: 7.5 µM

COC(=O)N[C@@H](C)C(=O)N1CCC(CCc2c(N)nc(C)nc2Cl)CC1
fold change (FC) [6]: 2.9 | inhibition in vivo at 3 mg/kg [8]: 82% | inhibition in vivo at 3 mg/kg [12]: 66%

Cc1nc(C(F)(F)F)nc(N)c1CCC1CCN(C(=O)[C@H](C)NC(=O)c2ccnn2C)CC1
inhibition in vivo at 10 mg/kg [4]: 82% | inhibition in vivo at 0.3 mg/kg [5]: 62% | inhibition in vivo at 3 mg/kg [8]: 82% | inhibition in vivo at 1 mg/kg [10]: 79% | inhibition in vivo at 0.1 mg/kg [17]: 57%

CCCCCCCCN(C(C)=O)C(CNCc1ccccc1)c1ccc2cc(O)ccc2c1 (centres undefined)
IC50 [16]: 13 µM

O=C(O)Cc1csc2cc(O[C@H]3CCc4ncccc43)cc(Cl)c12
inhibition in vivo at 10 mg/kg [18]: 51% | IC50 [19]: < 0.05 µM | inhibition in vivo at 10 mg/kg [20]: 28%

CCCCCCC[C@](C)(O)/C=C/[C@H](NC(=O)OCc1ccccc1)C(=O)OC
IC50 [3]: 50 µM

CC1(C)C(=O)C(C#N)=C[C@]2(C)[C@H]3CC[C@]4(C)CCC[C@H]4[C@@H]3CC[C@@H]12
IC50 [21]: 8 µM

CCCCCCC[C@H](O)/C=C/[C@H](NC(=O)OCc1ccccc1)C(=O)OC
IC50 [3]: 90 µM

O=C(O)c1ccc2oc(SCc3ccc(Cl)cc3Cl)nc2c1
IC50 [22]: 0.0033 µM | IC50 [23]: 0.0086 µM

CCCCCCCC(=O)OC[C@H](NC(=O)[C@H](CO)NC(=O)CN)C(=O)N[C@@H](Cc1ccccc1)C(=O)N[C@H](CN)CC(C)C (H-GSS(Octanoyl)F-X1)
IC50 [3]: 45 µM

CCCCCCCC(=O)NC[C@H](NC(=O)[C@H](CO)NC(=O)CN)C(=O)N[C@@H](Cc1ccccc1)C(=O)N[C@H](CN)CC(C)C (H-GS[Dap](Octanoyl)F-X1)
IC50 [3]: 1 µM

C[C@@H](O)[C@H](NC(=O)[C@@H]1CCCN1C(=O)[C@H](CO)NC(=O)[C@H](Cc1cccc2ccccc12)NC(=O)[C@H](CN)NC(=O)[C@H](CO)NC(=O)CN)C(N)=O (HELM PEPTIDE1{G.S.[NC[C@H](N[*:1])C(=O)[*:2]].[O=C([C@H](Cc1cccc2ccccc12)N[*:1])[*:2]].S.P.T.[am]}$$$$V2.0)
IC50 [24]: 100 µM | IC50 [25]: 0.006 µM

From ChEMBL document CHEMBL4673189, “Recent progress in the discovery of ghrelin O-acyltransferase (GOAT) inhibitors” (RSC Med Chem, 2020)
